Assay [1] concerns the target T1, leukotriene receptor (guinea pig trachea) (Cavia porcellus, UniProt Q2NNR5).
T1 construct: Trachea were cut into ring segments and the epithelium removed; from tissue; host or cells: guinea pig tracheal rings, epithelium removed (male Hartley)
T1 sequence (Q2NNR5 1-340): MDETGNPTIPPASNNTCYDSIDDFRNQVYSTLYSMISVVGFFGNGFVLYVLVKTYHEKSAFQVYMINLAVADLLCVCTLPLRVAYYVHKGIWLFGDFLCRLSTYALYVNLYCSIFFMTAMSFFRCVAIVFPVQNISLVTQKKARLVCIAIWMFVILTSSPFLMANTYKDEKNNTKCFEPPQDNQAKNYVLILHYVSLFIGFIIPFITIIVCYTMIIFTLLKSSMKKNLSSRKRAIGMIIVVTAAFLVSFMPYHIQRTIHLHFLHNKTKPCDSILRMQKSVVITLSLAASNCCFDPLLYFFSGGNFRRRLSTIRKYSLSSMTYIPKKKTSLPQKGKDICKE
The experiment in a line: Assay 1 - Guinea Pig Tracheae, leukotriene receptor antagonism (LTD4 contraction). Particulars: antagonist added 45 minutes prior, read-out: GP trach (pKb) (converted). The procedure:
Assay 1--Guinea Pig Tracheae
Leukotriene receptor antagonism was evaluated in isolated smooth muscles by the following procedure:
Male Hartley guinea pigs weighing 250-400 grams were asphyxiated with CO2 and exsanguinated. Trachea were excised and placed in Krebs'-bicarbonate solution of the following composition in mM/liter: NaCl, 118.2; NaHCO3, 24.8; KCl, 4.6; KH2 PO4, 1.2, MgSO4.7H2 O, 1.2; dextrose, 10.0; CaCl2.2H2 O, 2.5; 1-cysteine, 3.0, and indomethacin, 3 μM. Trachea were cut into ring segments and the epithelium removed by gently rubbing the luminal surface with a cotton swab. Tracheal rings were placed on supports constructed from two 1 inch 30 gauge disposable stainless steel hypodermic needles (Hooker, et al., 1977, Blood Vessels 14:1-11), and transferred to organ baths containing Krebs' solution maintained at 37° C. and aerated with 95% O2 and 5% CO2. Isometric measurements were made with a Grass FTO3C force-displacement transducer and recorded on a Grass polygraph as changes in grams of force. After approximately 60 minutes of equilibration, a single submaximal concentration of LTD4 (3×10^-8 M) was used to contract the trachea. Two LTD4 concentration-response curves were then generated using the cumulative response technique of Van Rossum (1963). A potential leukotriene receptor antagonist was added to the tissue bath 45 minutes prior to generation of the second LTD4 concentration-response curve.
(§1) The contractions of trachea and ilea to LTD4 in the presence of the drug was compared to responses in the absence of drug. KB values were calculated by the method of Furchgott (Ann. N.Y. Acad. Sci., 139:553, 1967) using the following equation: KB =[Antagonist]/Dose-Ratio-1.

Assay [2] concerns the target T2, LTD4 receptor (intestinal smooth muscle receptors, guinea pig ileum) (Cavia porcellus, UniProt Q2NNR5).
T2 construct: Terminal ilea were removed from the animals; from tissue; host or cells: guinea pig terminal ileum segments
T2 sequence (Q2NNR5 1-340): T1 sequence (Q2NNR5 1-340)
The experiment in a line: Assay 2 - Guinea Pig Ileum, antagonism of LTD4 contraction. Particulars: drug added 30 minutes prior, read-out: GP ileum (pKb) (converted). As to the method: Assay 2--Guinea Pig Ileum:
Guinea pig ileum was used to determine the potency of novel LTD4 receptor antagonists on intestinal smooth muscle receptors. Terminal ilea were removed from the animals exsanguinated after CO2 asphyxiation and cut into smaller segments of approximately 2 to 3 cm. Tissues were placed in organ baths containing Krebs'bicarbonate solution prepared without indomethacin and 1-cysteine and aerated with 95% O2 and 5% CO2. After a 60 minute equilibration period, 3 submaximal contractions to histamine (3×10^-6 M) were obtained on all tissues. A cumulative concentration-response curve to LTD4 was then generated using the method of Van Rossum (Arch. Int. Pharmacodyn. Ther. 143:299, 1963). Agonist was washed from the baths and the tissues permitted to recover. After a second LTD4 concentration-response curve was produced, the ilea were washed once again and permitted to re-equilibrate. Experimental drug was added to the baths 30 minutes prior to a final LTD4 concentration-response curve.
as §1

The target in assay [3] is T3, LTD4 receptor (guinea pig lung membrane) (Cavia porcellus, UniProt Q2NNR5).
T3 construct: guinea-pig lung membrane preparation; from tissue; host or cells: guinea pig lung membranes
T3 sequence (Q2NNR5 1-340): T1 sequence (Q2NNR5 1-340)
As to the kind of experiment: Assay 3 - Guinea Pig Lung Membrane [3H] LTD4 Radioligand Binding (GPLM binding). Particulars: [3H] LTD4, guinea pig lung membrane, 30 min, 30° C., pH 6.5; for Ki: read-out: GPLM binding (pKi) (converted). As to the method:
Assay 3--Guinea Pig Lung Membrane [^3 H] LTD4 Radioligand Binding: [^3 H] LTD4 was purchased from New England Nuclear (Boston, Mass.). All other chemicals were purchased from Sigma (St. Louis, Mo.). Incubations were performed in silanised glass tubes and contained 30 mg of guinea-pig lung membrane preparation (Saussy, et al., Mol. […] The binding reaction was terminated after 30 min. at 30° C. by the addition of 4 ml ice cold wash buffer (25 mM Tris --HCl, pH 7.5), followed immediately by vacuum filtration over Whatman (GF/C glass fibre filters, using a Brandel (Gaithersburg, Md.) 48 place harvester. The tubes and filter were washed 3×4 ml in cold wash buffer. Retained radioactivity was determined by liquid scintillation counting at 50% counting efficiency using Ready Protein Plus cocktail (Beckman, Fullerton, Calif.). Data were analyzed using linear regression analysis of log-logit plots of the values between 10% and 90% of control biding to calculate I[…] and slope factors (pseudo-Hill coefficients). IC50 values were corrected for radioligand concentrations (Cheng and Prusoff, Biochem. Pharmacol. 22:3099-3108, 1973) to calculate Ki values.

Each structure is given as a SMILES string.

As to `Clc1ccc2ccc(/C=C/c3cccc(CN4CCc5cccc(CCc6nnn[nH]6)c54)c3)nc2c1` [Example 4, 5-[2-[1-[3-[2-E-(7-Chloroquinolin-2-yl)ethenyl]benzyl]-2,3-dihydroindol-7-yl]ethyl]-1H-tetrazole], the Kb in assay [1] was 28.8 nM; in assay [2], 2.34 nM. Moreover, the “GPLM binding (pKi)” value in assay [3] turned out to be 8.3.

With `Clc1ccc2ccc(COc3cccc(CN4CCc5cccc(CCc6nnn[nH]6)c54)c3)nc2c1` [Example 5, 5-[2-[1-[3-(7-Chloroquinolin-2-ylmethoxy)benzyl]-2,3-dihydroindol-7-yl]-ethyl]-1H-tetrazole], the Kb in assay [1] was 8.32 nM; in assay [2], 3.89 nM. Moreover, the “GPLM binding (pKi)” value in assay [3] was found to be 8.0.

For the compound `Clc1ccc2ccc(COc3ccc(CN4CCc5cccc(CCc6nnn[nH]6)c54)cc3)nc2c1` [Example 6, 5-[2-[1-[4-(7-Chloroquinolin-2-ylmethoxy)benzyl]-2,3-dihydroindol-7-yl]-ethyl]-1H-tetrazole], the results for the Kb in assay [1] and in assay [2] were 25.7 nM and 3.24 nM, respectively. In assay [3], the “GPLM binding (pKi)” value is on record as 7.6.

For the compound `c1cc(CN2CCc3cccc(CCc4nnn[nH]4)c32)cc(OCc2ccc3ccccc3n2)c1` [Example 7, 5-[2-[1-[3-(Quinolin-2-ylmethoxy)benzyl]-2,3-dihydroindol-7-yl]-ethyl]-1H-tetrazole], the Kb in assay [1] was 15.8 nM; in assay [2], 11.2 nM. Moreover, in assay [3], the “GPLM binding (pKi)” value came out at 7.3.

For `C(=C\c1ccc2ccccc2n1)/c1cccc(CN2CCc3cccc(CCc4nnn[nH]4)c32)c1` [Example 9, 5-[2-[1-[3-[2-E-(Quinolin-2-yl)ethenyl]benzyl]-2,3-dihydroindol-7-yl]ethyl]-1H-tetrazole], the Kb in assay [2] is 2.51 nM. The “GPLM binding (pKi)” value in assay [3] is listed as 7.8.

On to `Clc1ccc2ccc(/C=C/c3cccc(CN4CCc5cccc(OCc6nn[nH]n6)c54)c3)nc2c1` [Example 10, 5-[1-[3-[2-E-(7-Chloroquinolin-2-yl)ethenyl]benzyl]-2,3-dihydroindol-7-yloxymethyl]-1H-tetrazole], for which, in assay [3], the Ki is 2.45 nM.

On to `Clc1ccc2ccc(/C=C/c3ccc(CN4CCc5cccc(CCc6nnn[nH]6)c54)cc3)nc2c1` [Example 11, 5-[2-[1-[4-[2-E-(7-Chloroquinolin-2-yl)ethenyl]benzyl]-2,3-dihydroindol-7-yl]-ethyl]-1H-tetrazole], for which the Ki in assay [3] is 2.34 nM.
